Where two headings read alike, the source gives them in different places.
Columns and labels:
Polaribacter sp. (TC5) [1] = test: Toxicity test, strain TC5; type: cell-based
Excerpt: Polaribacter sp. (TC5) was isolated in June 2010 in the Military Harbor of Toulon (Mediterranean Sea, France) as described in F. Brian-Jaisson, A. Ortalo-Magné, L. Guentas-Dombrowsky, F. Armougom, Y. Blache, M. Molmeret, Microb. Ecol., 2014, 68, 94-110.

Polaribacter sp. (TC5) [2] = test: Anti-adhesion test, strain TC5; type: cell-based
Shewanella sp. (TC11) [3] = test: Toxicity test, strain TC11; type: cell-based
Excerpt: Shewanella sp. (TC11) was isolated in June 2010 in the Military Harbor of Toulon (Mediterranean Sea, France) as described in F. Brian-Jaisson, A. Ortalo-Magné, L. Guentas-Dombrowsky, F. Armougom, Y. Blache, M. Molmeret, Microb. Ecol., 2014, 68, 94-110.

[4] = Gravimetry (weight loss), corrosion inhibition; details: mild steel in 1N HCl
In short: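 Mild steel coupons (2.5×2.0×0.1 cm) immersed in non-de-aerated 1N HCl without or with various inhibitor concentrations, then washed, dried and reweighed; duplicate runs. IE (%) calculated from corrosion rates without (CR^o) and with (CR) inhibitor.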

[5] = system: Pseudoalteromonas lipolytica (TC8); test: Anti-adhesion test, strain TC8; type: cell-based; details: Pseudoalteromonas lipolytica
In short: (§1)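 Stationary-phase bacteria grown in VNSS, diluted in artificial sea water and incubated about 15 h with compound at eight concentrations in triplicate, DMSO up to 2%. Adhered cells stained with SYTO 61 (1 μM). EC50 from a sigmoid fit of % inhibition against log concentration.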

[6] = system: Pseudoalteromonas ulvae (TC14); test: Anti-adhesion test, strain TC14; type: cell-based
In short: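 Stationary-phase TC14 cells grown in VNSS, diluted in artificial seawater and incubated with compound at eight concentrations in triplicate (DMSO ≤2%) for about 15 h. Non-adhered bacteria removed and adhered cells quantified by SYTO 61 (1 μM) staining. EC50 derived from sigmoid fit of % inhibition versus log concentration.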

[7] = system: Pseudoalteromonas lipolytica (TC8); test: microbe, parasite or virus in culture
Excerpt: (§2) The anti-adhesion bioassays and toxicity tests are adapted from those disclosed in M. Camps, J.-F. Briand, L. Guentas-Dombrowsky, G. Culioli, A. Bazire and Y. Blache, Mar. Poll.
(§3) After growth on VNSS, bacterial strains were harvested during the exponential phase. The microtiter plates (sterile transparent PS; Nunc, Fisher Scientific) were filled as described in the Anti-adhesion test method using VNSS instead of ASW to allow bacterial growth. The growth was followed by measuring the turbidity (OD600 nm) every hour during 6 or 7 hours. Then, resazurin (50 μM) was added in all the wells, and fluorescence was measured after 2 h to quantify the percent of bacterial viability. The same methodology used with SYTO 61 was applied to calculate a percent of viability after resazurin staining.

Paracoccus sp. (4M6) [8] = test: microbe, parasite or virus in culture
Excerpt: as §2, §3

[9] = system: marine bacterial strains (TC14, TC8, 4M6, TC5 and TC11); test: Toxicity test, summary over the strains; type: cell-based; details: comparison with reference biocides
Excerpt: (§4) In examples 64 and 65, the following marine bacterial strains are used.

[10] = system: marine bacterial strains (TC14, TC8, 4M6, TC5 and TC11); test: Anti-adhesion test, summary over the strains; type: cell-based
Method: Bacterial strains were grown on Väätänen nine-salts solution (VNSS). When the stationary phase was reached, the bacterial suspension was centrifuged. Cells were then diluted in sterile artificial sea water (ASW) and introduced in microtiter plates (sterile black PS; Nunc, Fisher Scientific, France) with the tested compound (at eight concentrations in three replicates) in the presence of three controls: (i) non-specific staining control, (ii) adhesion control, and (iii) positive control. The maximum percentage of solvent (DMSO 2%) used to dilute the tested compound was also tested in triplicate as additional control. After incubation during an optimized adhesion time (moderately 15 h), non-adhered bacteria were eliminated and adhered cells were quantified after SYTO 61 (1 μM) staining. A percentage of inhibition was calculated per well. A sigmoid dose-response curve was obtained by plotting the percentage of inhibition as a function of the log of tested compound concentration, after mean (n=3) and standard deviation (SD) calculation per triplicate for each concentration. EC50 values were then calculated for each compound.
as §4

[11] = system: Pseudoalteromonas ulvae (TC14); test: Toxicity test, strain TC14; type: cell-based
Excerpt: Pseudoalteromonas ulvae (TC14) was isolated in June 2010 in the Military Harbor of Toulon (Mediterranean Sea, France) as described in F. Brian-Jaisson, A. Ortalo-Magné, L. Guentas-Dombrowsky, F. Armougom, Y. Blache, M. Molmeret, Microb. Ecol., 2014, 68, 94-110.

Paracoccus sp. (4M6) [12] = test: Anti-adhesion test, strain 4M6; type: cell-based; details: Paracoccus
In short: as §1

Shewanella sp. (TC11) [13] = test: Anti-adhesion test, strain TC11; type: cell-based

CN(C)CCCOc1ccc(CCn2cc(-c3ccc(-c4cn(CCc5ccc(OCCCN(C)C)c(Br)c5)nn4)cc3)nn2)cc1Br [AS172, 3-(4-(2-(4-(4-(1-(4-(3-(dimethylamino)propoxy)-3-bromophenethyl)-1H-1,2,3-triazol-4-yl)phenyl)-1H-1,2,3-triazol-1-yl)ethyl)-2-bromophenoxy)-N,N-dimethylpropan-1-amine]
IS: LC50/EC50 (selectivity index), TC5 (Polaribacter sp. (TC5) [1]): 11.1 | CC50 (Polaribacter sp. (TC5) [1]; read-out: LC50 (necessary concentration to kill 50% of the bacteria)): 122 µM | activity at 200 µM (Polaribacter sp. (TC5) [2]; 15 h, 200 μM): 12.7 ± 5.7% | EC50 (Polaribacter sp. (TC5) [2]; read-out: EC50 (effective concentration to inhibit 50% of the adhesion)): 11 ± 0.3 µM | IS: LC50/EC50 (selectivity index), TC11 (Shewanella sp. (TC11) [3]): 18.9 | LC50 (necessary concentration to kill 50% of the bacteria), TC11 (Shewanella sp. (TC11) [3]): 293 µM | IE % ([4]; 0.1 ppm): 40.16% | IE % ([4]; 0.3 ppm): 92.94% | IE % ([4]; 0.5 ppm): 91.11% | IE % ([4]; 2 ppm): 96.44% | IE % ([4]; 10 ppm): 98.15% | activity at 200 µM ([5]; 15 h, read-out: % of adhesion at 200 μM, TC8): 5.3 ± 2.5% | EC50 ([5]; read-out: EC50 (effective concentration to inhibit 50% of the adhesion), TC8): 15 ± 3.3 µM | inhibition of the adhesion of bacterial strain TC14 ([6]; 200 μM): totally inhibit | activity at 200 µM ([6]; Pseudoalteromonas ulvae, 15 h, 200 μM): 0.5 ± 0.8% | EC50 ([6]; Pseudoalteromonas ulvae, read-out: EC50 (effective concentration to inhibit 50% of the adhesion)): 0.39 ± 0.28 µM | CC50 ([7]; Pseudoalteromonas lipolytica, read-out: LC50 (necessary concentration to kill 50% of the bacteria), TC8): 165 µM | IS: LC50/EC50 (selectivity index), TC8 ([7]; strain TC8): 10.9 | CC50 (Paracoccus sp. (4M6) [8]; Paracoccus, read-out: LC50 (necessary concentration to kill 50% of the bacteria), 4M6): 82.3 µM | IS: LC50/EC50 (selectivity index), 4M6 (Paracoccus sp. (4M6) [8]; strain 4M6): 22.9 | toxicity by LC50 values compared with TBTO/ZINEB [9]: less toxic than TBTO and ZINEB | EC50 compared with TBTO/ZINEB ([10]; comparison with reference biocides): comparable to that of TBTO and lower than that of ZINEB | inhibition at 200 µM ([10]; read-out: inhibition of the adhesion of at least four marine bacterial strains): ≥ 85% | inhibition at 200 µM ([10]; read-out: inhibition of the adhesion of at least two marine bacterial strains): ≥ 65% | IS: LC50/EC50 (selectivity index), TC14 [11]: 576.1 | LC50 (necessary concentration to kill 50% of the bacteria), TC14 [11]: 224.7 µM | activity at 200 µM (Paracoccus sp. (4M6) [12]; 15 h, read-out: % of adhesion at 200 μM, 4M6): 5.1 ± 1.4% | EC50 (Paracoccus sp. (4M6) [12]; read-out: EC50 (effective concentration to inhibit 50% of the adhesion), 4M6): 3.6 ± 3.8 µM | activity at 200 µM (Shewanella sp. (TC11) [13]; 15 h, 200 μM, strain TC11, read-out: % of adhesion at 200 μM, TC11): 4.6 ± 0.4% | EC50 (Shewanella sp. (TC11) [13]; read-out: EC50 (effective concentration to inhibit 50% of the adhesion), strain TC11): 15.6 ± 2.9 µM
